“Also recorded” adds a separate entry of the source.
How the values were obtained:
[1] = tested on: CEA-specific IgG response; experiment: ADA against CEA-IL2v in hIgG1 Tg mice, ELISA (Example 1, 28 days); assay type: in vivo, C57BL/6-Tg (hIgG1,k,l) mice; settings: 40 mg/kg/day via food admix from one week before first immunization until day 28, vs vehicle
Text: For immunogenicity assessment, we used the previously described human IgG1 immune-tolerant mouse model (Bessa, Boeckle et al. Pharm Res 2015, 32(7): 2344-2359). Since this human IgG transgenic mouse is tolerant to a broad range of human IgG1 antibodies (Abs), ADA responses elicited in this system are taken to reflect intrinsic immunogenic attributes of the eliciting Ab compounds also expected to cause ADA in humans.
15-week-old mice C57BL/6 wild type and C57BL/6-Tg (hIgG1,k,l) were purchased from Taconic (Denmark) and housed at the animal facilities under a 12 hour (h) light 12 h dark cycle with cycles of air ventilation and free access to water and food. 7×10 μg of CEA-112v or 7×10 μg of Humira (Adalimumab, Abbvie Germany GmbH) were injected respectively at day 0, 4, 7, 11, 14, 18 and 21 subcutaneously in the right flank or the left flank alternatively. The dosage of the cathepsin S inhibitor consumption was 40 mg/kg/day. […]
Nunc Maxisorp flat-bottom 96 well ELISA plates were coated with 100 μl per well of Humira or CEA-PGLALA (3.42 mg/ml, ID 8037) respectively at 5 μg/mL in NaHCO3100 mM buffer overnight at +4° C. […] 100 μl of substrate P-nitrophenyl phosphate ready to use (Life Technologies Cat no 002212) were added per well and after 10 min incubation at room temperature, the OD at 405 nm was read as an end-point measurement with a Versamax ELISA reader.

[2] = tested on: CEA-specific IgG response; experiment: ADA against CEA-IL2v in wild-type mice, ELISA (Example 1, 28 days); assay type: in vivo, C57BL/6 wild type mice; settings: 40 mg/kg/day via food admix from one week before first immunization until day 28, vs vehicle
Protocol: 15-week-old mice C57BL/6 wild type and C57BL/6-Tg (hIgG1,k,l) were purchased from Taconic (Denmark) and housed at the animal facilities under a 12 hour (h) light 12 h dark cycle with cycles of air ventilation and free access to water and food. 7×10 μg of CEA-112v or 7×10 μg of Humira (Adalimumab, Abbvie Germany GmbH) were injected respectively at day 0, 4, 7, 11, 14, 18 and 21 subcutaneously in the right flank or the left flank alternatively. The dosage of the cathepsin S inhibitor consumption was 40 mg/kg/day. The food admix (Ssniff Spezialdiäten, Germany) was given daily one day before the first immunization until day 28 for the mice immunized with Humira. The food admix was given daily one week before the first immunization until day 28 for the mice immunized with CEA-IL2v (R06895882). At day −12, 7, 14 and 28 blood samples were taken.
Nunc Maxisorp flat-bottom 96 well ELISA plates were coated with 100 μl per well of Humira or CEA-PGLALA (3.42 mg/ml, ID 8037) respectively at 5 μg/mL in NaHCO3100 mM buffer overnight at +4° C. The next day the ELISA plates were washed 3 times with PBS+0.05% Tween. […] 100 μl of substrate P-nitrophenyl phosphate ready to use (Life Technologies Cat no 002212) were added per well and after 10 min incubation at room temperature, the OD at 405 nm was read as an end-point measurement with a Versamax ELISA reader.

[3] = tested on: adalimumab-specific IgG response; experiment: ADA against adalimumab in hIgG1 Tg mice over time, ELISA (Example 3, 63 days); assay type: in vivo, C57BL/6-Tg (hIgG1,k,l) mice; settings: 40 mg/kg/day via food admix from one day before first immunization until day 28, blood samples to day 56, vs vehicle
Protocol: 15-week-old female mice C57BL/6-Tg (hIgG1,k,l) were purchased from Taconic (Denmark) and housed at the animal facilities in room with air-conditioned under a 12 hours light/dark cycle in macrolon boxes with enriched environment and free access to water and food. 7×10 μg of Humira (Adalimumab, Abbvie Germany GmbH) were injected at day 0, 4, 7, 11, 14, 18 and 21 subcutaneously in the right flank or the left flank alternatively. The dosage of (2S,4R)-4-[4-(1-methyl-1H-pyrazol-4-yl)-2-trifluoromethyl-benzenesulfonyl]-1-(1-trifluoromethyl-cyclopropanecarbonyl)-pyrrolidine-2-carboxylic acid (1-cyano-cyclopropyl)-amide consumption was 40 mg/kg/day. (2S,4R)-4-[4-(1-methyl-1H-pyrazol-4-yl)-2-trifluoromethyl-benzenesulfonyl]-1-(1-trifluoromethyl-cyclopropanecarbonyl)-pyrrolidine-2-carboxylic acid (1-cyano-cyclopropyl)-amide was given via food admix (Ssniff Spezialdiäten, Germany) daily from one day before the first Humira immunization until day 28. […]
Nunc Maxisorp flat-bottom 96 well ELISA plates were coated with 100 μl per well of Humira or CEA-PGLALA respectively at 5 μg/mL in NaHCO3100 mM buffer overnight at +4° C. […] 100 μl of substrate P-nitrophenyl phosphate ready to use (Life Technologies, Cat no 002212) were added per well and after 10 min incubation at room temperature, the OD at 405 nm was read as an end-point measurement with a Versamax ELISA reader.

Cn1cc(-c2ccc(S(=O)(=O)[C@@H]3C[C@@H](C(=O)NC4(C#N)CC4)N(C(=O)C4(C(F)(F)F)CC4)C3)c(C(F)(F)F)c2)cn1 [cathepsin S inhibitor, (2S,4R)-4-[4-(1-methyl-1H-pyrazol-4-yl)-2-trifluoromethyl-benzenesulfonyl]-1-(1-trifluoromethyl-cyclopropanecarbonyl)-pyrrolidine-2-carboxylic acid (1-cyano-cyclopropyl)-amide]
ADA to CEA-IL2v (CEA-specific IgG) [1]: prevents ADA to CEA-IL2v in hIgG transgenic mice; also recorded: complete abrogation of ADA to CEA-IL2v
ADA to CEA-IL2v (CEA-specific IgG) [2]: reduces its levels in wild-type mice; also recorded: only partial reduction of ADA
ADA to adalimumab (adalimumab-specific IgG) over time [3]: reduces ADA to adalimumab

Reference: patent publication US12419862B2, “Use of a cathepsin s inhibitor against the formation of anti-drug antibodies” (Hoffmann-La Roche Inc., priority 2018, dated 2025)
